# Experimental data taken from US20180002692A1, “Sequence Specific and Organism Specific Antimicrobials and Related Materials and Methods” (priority 2015, published 2018).
# “Also recorded” adds a separate entry of the source. Where two headings read alike, the source gives them in different places.
# Experiments:
# MDR E. coli = test: Growth of clinical strain MDR E. coli; assay type: cell-based; conditions: 10 μM
# Method: (§1) MG1655 E. coli cultures were started from individual colonies from 2% LB and 1.5% agar into M9 media. They were diluted 1:10,000 from overnight culture into fresh M9 with respective treatment and grown at 37° C. with 225 rpm shaking. Clinical strains were started from individual colonies grown on cation adjusted Mueller Hinton Broth with 1.5% agar into liquid CAMHB. These were diluted 1:10,000 into CAMHB medium with respective treatment and grown at 37° C. with 225 rpm shaking. Optical density measurements were taking using a Tecan GENios at 562 nm with a bandwidth of 35 nm. Lag time was calculated using Growth Rates Made Easy (Hall et al. Mol. Biol. Evol. 31(1):232-238).
# (§2) MDR E. coli was inhibited by four of the six oligomers tested (α-folC, α-ffh, α-lexA, and α-rpsD), extended-spectrum beta-lactamase (ESBL) K. pneumoniae was inhibited by two of the antisense oligomers (α-fnrS and α-rpsD), and New Delhi metallo-β-lactamase (NDM-1) K. pneumoniae was inhibited by one of the oligomers tested (α-rpsD) (FIGS. 15-16).
# ESBL K. pneumoniae = test: Growth of clinical strain ESBL K. pneumoniae; assay type: cell-based, Klebsiella pneumoniae; conditions: 10 μM
# Method: as §1, §2
# MG1655 E. coli [1] = test: Growth (optical density, lag time) of MG1655; assay type: cell-based; conditions: 10 μM antisense inhibitor
# Method: as §1, with “31(1):232-238). […]” for “31(1):232-238).”
# MG1655 E. coli [2] = test: Colony forming unit analysis of MG1655; assay type: cell-based; conditions: 10 μM, 2 hours; listed as A-rpsD
# Source text: The effect of α-lexA, α-fnrS, and α-rpsD on cell viability using a colony forming unit analysis was then determine.
# [3] = system: MDR Salmonella typhimurium; test: Growth of clinical strain MDR S. typhimurium; assay type: cell-based; conditions: 10 μM
# Method: as §1, §2
# CRE E. coli = test: Growth of clinical strain CRE E. coli; assay type: cell-based, Escherichia coli; conditions: 10 μM
# Method: as §1, §2
# NDM-1 K. pneumoniae = test: Growth of clinical strain NDM-1 K. pneumoniae; assay type: cell-based, Klebsiella pneumoniae; conditions: 10 μM
# Method: as §1, §2
# [4] = system: ampicillin-resistant E. coli; test: Colony forming unit analysis with α-TSS and ampicillin; conditions: 1 μM α-TSS (below MIC), 300 μg/mL ampicillin
# Method: Cultures were sampled at respective time points and serial dilutions were performed ranging from 10^2-10^10. For ampicillin sensitivity experiment, dilutions were plated on solid media and 300 μg/mL ampicillin sodium salt and grown at 37° C. for 24 hr followed by cell counting. For the other experiments, cultures were serially diluted into PBS and plated onto 2% agar and 1.5% agar. Plates were incubated for 16-24 h at 37° C. and counted for visible colonies.
# Overnight cultures of ampicillin-resistant E. coli were pre-treated with different concentrations of α-TSS, followed by treatment with ampicillin.
# bla mRNA = bla mRNA expression by qPCR; assay type: cell-based, E. coli; conditions: 5 μM α-TSS, 25 μM α-RBS, 25 μM α-YUNR; absence of ampicillin
# Method: Three biological replicates were used for bla expression analysis. Cultures were pretreated overnight in respective PNA and liquid media in the absence of ampicillin and collected for RNA at 16 hr.
# 50 μL of the respective culture was added to 100 μL of Bacteria RNAprotect (Qiagen) and incubated at room temperature for 5 min. The cells were then pelleted via centrifugation for 3 min at 10,000 rpm, the supernatant removed, and samples were flash frozen in an ethanol dry ice bath and stored at −80° C. Precautions were taken to protect RNA from RNases using RNaseZap (Life Technologies). RNA was extracted from frozen cell pellets using GeneJET RNA purification kit (Thermo Scientific) and 350-600 ng was treated with Turbo DNA-free (Ambion). 50 ng cDNA was synthesized using Maxima Universal First Stand cDNA synthesis kit (Thermo Scientific). 1.5 ng of cDNA was used for qPCR with Maxima SYBR Green qPCR master mix with ROX normalization (Thermo Scientific) using Illumina Eco qPCR system. Transcript levels were analyzed using the ΔCq method with respect to moderately expressed housekeeping gene cysG (43). Transcript levels were further analyzed for the mutant populations using the ΔΔCq method with respect to the no treatment populations.
# [5] = system: ampicillin-resistant E. coli; assay type: cell-based
# Method: pAKgfp1 plasmid was obtained from Addgene for TEM-1 β-lactamase resistance gene, bla (43). The plasmid was cloned into chemically competent Zymo DH5a E. coli (Expressys). Untransformed Zymo DH5a was used as a control strain for β-lactamase activity assays. Liquid cultures were grown in 2% LB, incubated at 37° C. and shaken at 225 rpm. Solid cultures were grown on 2% LB broth, 1.5% agar at 37° C. Ampicillin sodium salt (Sigma Aldrich) was used for selection at a concentration of 300 μg/mL for MIC and CFU analysis. Optical density measurements were taken using a Tecan GENios at 562 nm with a bandwidth of 35 nm. All bacterial freezer stocks were stored in 40% glycerol at −80° C.
# [6] = system: ampicillin-resistant E. coli; assay type: cell-based; remark: listed apart in the source
# Method: Three biological replicates were selected from colonies and pretreated for 16 hr with respective α-TSS concentration in liquid media. After pretreatment, the cultures were diluted 1:100,000 into liquid media with respective concentration of ampicillin and α-TSS and allowed to grow with shaking at 37° C. for 24 hr. The final OD at 562 nm at 24 hr was used for data analysis.
# Data fitting analysis was performed in Origin Pro 6.1. Data was fit to a sigmoidal/decay Boltzman function.
# The degree of re-sensitization exerted by α-TSS in presence of varying concentrations of ampicillin above and below the MIC determined for α-TSS was then evaluated.
# [7] = system: ampicillin-resistant E. coli; test: Emergence of tolerance to α-TSS/ampicillin combination; assay type: cell-based; conditions: 35 cultures
# Method: Ampicillin-resistant cultures were pretreated overnight with 2.5 μM α-TSS and then subjected to selection pressure of 2.5 μM α-TSS and 300 μg/mL of ampicillin for 24 hours. […] Mutant populations 1 and 2 were diluted and re-grown under selection pressure for another 24 hours.
# Changes in expression of a set of key stress response genes was examined to identify the resistance mechanism involved in obtaining resistance to α-TSS. Thirteen representative stress response genes were measured by qPCR (FIG. 5B).
# [8] = 0.5 μM α-TSS (below MIC), 24 hr
substance,measurement,setting,value
"KFFKFFKFFK-O-ttgccattttct (antisense TTGCCATTTTCT; all peptide nucleic acid (PNA); (KFF)3K cell-penetrating peptide joined to the N-terminus through an O-linker) [α-rpsD, 12-mer antisense PNA centered on start codon of rpsD, O-linker to (KFF)3K]",growth inhibition of MDR E. coli,MDR E. coli,inhibited
same,growth inhibition of ESBL K. pneumoniae,ESBL K. pneumoniae,inhibited
same,lag time,MG1655 E. coli [1],significantly increased lag time
same,growth of MG1655 E. coli cultures,MG1655 E. coli [1]; 24 h,completely inhibited; also recorded: completely prevented cell growth; also recorded: Complete inhibition
same,colony forming units per milliliter after two hours of treatment,MG1655 E. coli [2],zero
same,growth inhibition of MDR S. typhimurium,[3],inhibited
same,growth inhibition of CRE E. coli,CRE E. coli,completely prevented growth; also recorded: inhibited
same,growth inhibition of NDM-1 K. pneumoniae,NDM-1 K. pneumoniae,inhibited
"KFFKFFKFFK-O-tactcatactct (antisense TACTCATACTCT; PNA, O-linker to (KFF)3K peptide, chemistry not fully specified) [α-TSS, 12-mer antisense PNA to translation start site of bla mRNA, O-linker to (KFF)3K cell penetrating peptide]",colony forming units over time,[4],increased with time
same,bla mRNA expression,bla mRNA,did not affect bla transcript levels; also recorded: did not significantly reduce bla expression
same,re-sensitization of drug resistant E. coli to ampicillin,[5],re-sensitized drug resistant E. coli to ampicillin; also recorded: re-sensitization of drug resistant E. coli to ampicillin; also recorded: re-sensitize
same,growth in absence of ampicillin (toxicity of antisense agent),[5]; absence of ampicillin,non-toxic effect; also recorded: No inhibition
same,growth of drug-resistant E. coli in presence of ampicillin,[5]; antisense oligomer plus 300 μg/mL ampicillin,hindered cell growth; also recorded: impact growth; also recorded: significant antibiotic effect
same,minimum inhibitory concentration (MIC),"[5]; in presence of 300 μg/mL ampicillin, after overnight pretreatment with antisense agent",2.5 µM
same,slope of the transition from resistant to sensitive (Boltzman fit),[6]; 0.5 μM α-TSS (below MIC),−0.0038 ODmLμg^−1
same,ampicillin concentration up to which growth is unhindered,[6]; [8],250 µg/mL
same,ampicillin concentration with no growth,[6]; [8],550 µg/mL
same,decrease in ampicillin MIC compared to the no treatment cultures,[6]; 5 μM α-TSS (above MIC),greater than 20 fold
same,increase in negative slope compared to below MIC and no treatment,[6]; 5 μM α-TSS (above MIC),Greater than two fold
same,slope of the transition from resistant to sensitive (Boltzman fit),[6]; 5 μM α-TSS (above MIC),−0.010 OD/μg/mL
same,lowest ampicillin concentration showing a decrease in growth,"[6]; 5 μM α-TSS (above MIC), 24 hr",25 µg/mL
same,shift in ampicillin sensitivity,[6]; α-TSS at 0.5 μM (below MIC) and 5 μM (above MIC),leftward shift in ampicillin sensitivity
same,share of independent cultures showing emergence of tolerance,[7]; 2.5 μM α-TSS (MIC)/β-lactam,less than 5%
same,independent cultures showing emergence of tolerance,[7]; 5 μM α-TSS/ampicillin,None
